According to US20110020914A1, “METHODS FOR ENHANCING GROWTH OF ORGANISMS IN AN AQUEOUS GROWTH MEDIUM” (NOVUS INTERNATIONAL INC, priority 2009, published 2011):

Assays:
Format in all cases: cell-based
[1] = test system: Chlorella vulgaris; test: Effect of chelated micronutrients on growth (cell density, spectrophotometer 450 nm) of Chlorella vulgaris; conditions: up to 24 days, vs control
Procedure: To assess the efficacy of chelated micronutrients on the growth of Chlorella vulgaris, a fresh-water green microalgae, the following experiment was conducted. Chlorella vulgaris microalgae were maintained in stock cultures as described in Example 1. The microalgae were inoculated at an initial concentration of about 10^4 cells/ml into 250 ml conical flasks containing 100 ml of an algal growth medium having a composition described in Table 3.
Three different chelated micronutrient compositions were added to the growth medium of the flasks at six different concentrations to each algal culture for final concentrations of 0 mg/ml (control), […], 10^−4 mg/ml, 10^−3 mg/ml and 10^−2 mg/ml. The metal micronutrient compositions tested were Cu-HMTBA (BIOX-C), Zn-HMTBA (BIOX-Z), and Mn-HMTBA (BIOX-M). For each concentration of a particular micronutrient composition, three duplicate flasks were tested.
The flasks containing the added compounds were cultured in a chamber in which the temperature was maintained at 21° C.-25° C. In addition, the chamber provided continuous uniform illumination with a quantum flux of 0.72 10-20 photon/m^2+/−20% in the spectral range of 400-700 nm (8000 flux). The contents of the flasks were shaken, stirred, or aerated during the experiment to facilitate the transfer of CO2 to the microalgae.
Samples from each flask were taken after 2, 7, 12, 15, 18, 21, and 24 days of growth in the flasks and analyzed in quadruplicate to determine the cell density of the microalgae. The cell density was determined using a spectrophotometer at a wavelength setting of 450 nm and using a filtered growth medium sample as a blank. The sample volume analyzed was 100 μL per well.

[2] = test system: Chlorella vulgaris; test: Effect of chelated micronutrients on lipid accumulation (Nile Red fluorescence) in Chlorella vulgaris
Procedure: To assess the efficacy of chelated micronutrients on the lipid content of Chlorella vulgaris, a fresh-water green microalgae, the following experiment was conducted. Chlorella vulgaris microalgae colonies were cultured in algal culture media containing added BIOX-C, BIOX-Z, and BIOX-M as described in Example 3. Samples from each flask were taken after 9, 30, and 39 days of growth in the flasks and analyzed in triplicate to determine the lipid content of the microalgae cells. A fluorometric method was used determine cellular lipid accumulation. 4-mL culture samples were mixed with Nile Red (9-diethylamino-5H-benzophenoxazine-5-one) at a 100:1 volume ratio and allowed to stain for about seven minutes. Cytoplasmic lipids were then measured by the florescence intensity using a fluorometer (excitation 475 nm; emission 585 nm). The relative fluorescence for lipid content was obtained after subtraction of both the autofluorescence of algal cells and the self-fluorescence of the Nile Red dye from the uncorrected readings at 585 nm wavelengths.

[3] = test system: Chlorella vulgaris; test: Effect of chelated micronutrients on protein content (Coomassie Blue G, 595 nm) of Chlorella vulgaris
Procedure: To assess the efficacy of chelated micronutrients on the protein content of Chlorella vulgaris, a fresh-water green microalgae, the following experiment was conducted. Chlorella vulgaris microalgae colonies were cultured in algal culture media containing added BIOX-C, BIOX-Z, and BIOX-M as described in Example 3.
Samples from each flask were taken after 2, 7, 12, 15, 21, and 30 days of growth in the flasks and analyzed in triplicate to determine the protein content of the microalgae cells. The protein contents of the microalgal colonies were determined by using a spectrophotometer to measure microalgal cells in which the proteins were marked with a dye. 0.04-mL culture samples were gently mixed with 2 ml of Coomassie Blue G dye in a 4 mL plastic cuvette. Cytoplasmic proteins were then measured by measuring the absorbance of the dyed sample at a wavelength of 595 nm using a […].

[4] = test system: Dunaliella tertiolecta; test: Effect of chelated zinc on growth (cell density, haemocytometer) of Dunaliella tertiolecta; conditions: cultured with 10^−6 to 10^−2 mg/ml in f/2 medium, 18 days, vs control
Procedure: To assess the efficacy of adding HMTBA-chelated zinc (BIOX-Z) to the growth medium on the growth of the microalgae Dunaliella tertiolecta, the following experiment was conducted. Dunaliella tertiolecta was maintained in stock cultures in 20 ml test tubes at a cell density of about 2.5-5.0×10^4 cells/ml as seed cultures and maintained on a seven-day transfer cycle. The microalgae were inoculated into 1 L Pyrex glass Erlenmeyer flasks containing 250 ml of f/2 growth medium (Guillard 1975).
BIOX-Z was dissolved in distilled water and added at six different concentrations to each algal culture for final concentrations of 0 mg/ml (control), 10^−6 mg/ml, 10^−5 mg/ml, 10^−4 mg/ml, 10^−3 mg/ml and 10^−2 mg/ml. Each of the six test groups included 3 individual flasks.
The D. tertiolecta cells were grown in the flasks at a temperature of about 20° C. for a total of 18 days. Light was supplied to the cultures on a cycle of 12 hours of light and 12 hours of dark, at an intensity of 133-299 uEin/sec/cm^2 using a fluorescent light bulb bank (2-F20T12 Westinghouse cool white, Westinghouse Electric Corp., USA). Five samples from each of the test groups were taken each day, and the cell density of each sample was determined using a haemocytometer.

[5] = test system: Nitzchia sp. microalgae; test: Effect of chelated zinc on growth (cell density) of Nitzchia sp. microalgae; conditions: 10^−3 mg/ml, 18 days, vs control
Procedure: To assess the efficacy of HMTBA-chelated zinc (BIOX-Z) on the growth of microalgae from the genus Nitzchia, the following experiment was conducted. Microalgae from the genus Nitzchia was maintained in stock cultures as described in Example 1. The microalgae were inoculated into 1 L flasks and varying amounts of BIOX-Z were added to the flasks as described in Example 1. The Nitzchia cells were grown in the flasks as described in Example 1 for a total of 18 days. Samples were taken from the flasks each day to assess the cell density as described in Example 1.

[6] = all concentrations, after 30 days of growth
[7] = 0.000001-0.0001 mg/mL, after thirty days of growth
[8] = 0.001 mg/mL, thirty days of growth
[9] = all concentrations, through the entire period of growth

Row | SMILES | growth of Chlorella vulgaris (cell density) ([1]; 10^−2 mg/mL) | growth of Chlorella vulgaris (cell density) ([1]; 10^−3 mg/mL) | growth of Chlorella vulgaris (cell density) ([1]; 10^−4 mg/mL) | growth of Chlorella vulgaris (cell density) ([1]; 10^−5 mg/mL) | growth of Chlorella vulgaris (cell density) ([1]; 10^−6 mg/mL) | lipid content of Chlorella vulgaris cells [2, 6] | protein content relative to control [3, 7] | protein content relative to control [3, 8] | other results
1 | CSCCC(O)C(=O)[O-].CSCCC(O)C(=O)[O-].[Cu+2] (stereo not shown) [BIOX-C, Cu-HMTBA] | inhibited | no effect | enhanced | enhanced | enhanced | enhanced | 10-12 times the control protein content | about 4.5 times the control protein content | enhancement of microalgal lipid content compared with all compositions tested ([2]; 10^−2 mg/mL): largest enhancement; lipid content of Chlorella vulgaris cells ([2]; 10^−2 mg/mL, after 39 days of growth): higher lipid content than the control colony; lipid content of Chlorella vulgaris cells ([2]; 10^−3 mg/mL, after 39 days of growth): higher lipid content than the control colony; lipid content of Chlorella vulgaris cells ([2]; all concentrations, after 9 days of growth): enhanced; protein content of the microalgae cells ([3]; 0.01 mg/mL, vs control cells): inhibited; protein content relative to control ([3]; 10^−4 mg/mL, after thirty days of growth, largest enhancement of all compositions tested): about 12.8 times the control protein content; protein content of Chlorella vulgaris cells ([3]; all concentrations except 0.01 mg/mL, at twelve days of growth or longer): enhanced
2 | CSCCC(O)C(=O)[O-].CSCCC(O)C(=O)[O-].[Mn+2] (stereo not shown) [BIOX-M, Mn-HMTBA] | enhanced | inhibited | enhanced | enhanced | enhanced | enhanced | 10-12 times the control protein content | 7-8 times the control protein content | lipid content of Chlorella vulgaris colonies ([2]; 10^−5 mg/mL, after 39 days): enhanced to a lesser degree; lipid content of Chlorella vulgaris colonies ([2]; 10^−6 mg/mL, after 39 days): enhanced to a lesser degree; lipid content of Chlorella vulgaris colonies ([2]; concentrations of less than 10^−2 mg/mL, after nine days): enhanced; protein content relative to control ([3]; 0.01 mg/mL, thirty days of growth): 7-8 times the control protein content; protein content of Chlorella vulgaris colonies ([3]; all concentrations, after 21 days or more of growth): enhanced
3 | CSCCC(O)C(=O)[O-].CSCCC(O)C(=O)[O-].[Zn+2] (stereo not shown) [BIOX-Z, Zn-HMTBA] | no effect | enhanced | enhanced | enhanced | enhanced | – | – | – | concentration of D. tertiolecta cells [4]: enhanced; concentration of Nitzchia cells [5]: enhanced; lipid content of Chlorella vulgaris cells, concentration of greatest enhancement ([2]; 10^−3 mg/mL): most enhanced; lipid content of Chlorella vulgaris cells [2, 9]: enhanced; protein content of Chlorella vulgaris cells, concentration of greatest enhancement ([3]; 10^−5 mg/mL): most enhanced; protein content relative to control ([3]; 10^−5 mg/mL, after 30 days of growth): over twelve times; protein content of Chlorella vulgaris cells [3, 9]: enhanced
